According to US20260108512A1, “COMPOUNDS, COMPOSITIONS AND METHODS OF TREATING DISORDERS” (HOTSPOT THERAPEUTICS, INC., priority 2022, published 2026):

target: T1, Cbl-b (Homo sapiens, UniProt Q13191); test: Cbl-b LCK Ub TR-FRET assay; type: biochemical; details: average IC50, graded A-C; read-out: CBL-B_TR-FRET_AVG_IC50
T1 construct: biotin (biotinylated protein)
Protocol: Compounds are 3-fold serially diluted in DMSO in a 384-well polypropylene plate (e.g., #P-05525-BC; Labcyte) to generate a source plate with 10 concentrations of each compound, top concentration=2 mM. 80 nL of DMSO or compounds are transferred to each well of a black 384-well ProxiPlate (e.g., #6008260; PerkinElmer) using a Labcyte Echo, 1×assay buffer (50 mM HEPES pH7.0, 100 mM NaCl, 0.01% BSA, 0.01% Triton-X100, 1 mM DTT), 2×enzyme solution (16 nM Biotin-Cbl-b or 12 nM Biotin-c-Cbl in 1×assay buffer), 2×kinase mixture (120 nM His-LCK, 1 mM ATP, 10 mM MgCl2 in assay buffer) and 2.33×detection mixture (4.66×solution 1:163 nM Anti-HA-D2 antibody (e.g., #610HADAB:PerkinElmer), 27.96 nM Streptavidin-EU (e.g., #AD0062; PerkinElmer), 1.398 mM EDTA in 1×assay buffer+4.66×solution 2:2.796 pM UBE2D2/Methylated-HA-Ubiquitin thioester adduct (e.g., BostonBiochem) in 1×assay buffer) are prepared. 4 μL of 2×enzyme solution are added to each well containing compound, briefly centrifuged to mix, and incubated for 60 min at room temperature. 4 μL of 2×kinase mixture is added, briefly centrifuged to mix, and incubated for 90 min. at room temperature. 6 μL of detection mixture is added to all wells and briefly centrifuged before incubating for 20 min at room temperature. Plates am read for TR-FRET using an Envision at excitation 340 nm, emission at 615 and 665 nm, 4 flashes per well. IC50 is generated using no LCK as the low control and DMSO as the high control.

T1 sequence (Q13191 40-426): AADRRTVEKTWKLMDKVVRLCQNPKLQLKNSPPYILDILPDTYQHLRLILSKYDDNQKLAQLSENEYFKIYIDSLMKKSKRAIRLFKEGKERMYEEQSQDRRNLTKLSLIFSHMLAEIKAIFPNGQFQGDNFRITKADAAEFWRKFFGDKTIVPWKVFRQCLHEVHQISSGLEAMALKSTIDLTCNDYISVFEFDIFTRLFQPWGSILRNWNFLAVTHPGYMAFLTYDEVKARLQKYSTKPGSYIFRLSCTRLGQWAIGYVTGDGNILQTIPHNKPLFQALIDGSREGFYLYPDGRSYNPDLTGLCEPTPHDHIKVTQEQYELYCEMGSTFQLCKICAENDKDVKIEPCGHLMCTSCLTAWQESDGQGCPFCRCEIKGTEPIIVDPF

SMILES	IC50
Cn1cnnc1[C@H](F)C1(c2cccc(-n3cc4c(C(F)(F)F)cc(CNC5(C)CCC5)cn4c3=O)c2)COC1 (single isomer, unassigned) [Compound 2]	0.501 to 10 µM
Cn1cnnc1[C@@H](F)C1(c2cccc(-n3cc4c(C(F)(F)F)cc(CNC5(C)CCC5)cn4c3=O)c2)COC1 (single isomer, unassigned) [Compound 3]	0.501 to 10 µM
Cn1cnnc1[C@@H](F)C1(c2cccc(-n3cc4c(C(F)(F)F)cc(CN)cn4c3=O)c2)COC1 (single isomer, unassigned) [Compound 5]	0.101 to 0.5 µM
Cn1cnnc1[C@@H](F)[C@](C)(F)c1cccc(-n2cc3c(C(F)(F)F)cc(CN4CCC5(CC5)C4)cn3c2=O)c1 (single isomer, unassigned) [Compound 6]	< 0.1 µM
Cn1cnnc1[C@@H](F)[C@](C)(F)c1cccc(-n2cc3c(C(F)(F)F)cc(CN4CCC5(CC5)C4)cn3c2=O)c1 (single isomer, unassigned) [Compound 7]	0.101 to 0.5 µM
COC[C@H]1CCCN1Cc1cc(C(F)(F)F)c2cn(-c3cccc(C4([C@H](F)c5nncn5C)COC4)c3)c(=O)n2c1 (single isomer, unassigned) [Compound 10]	0.501 to 10 µM
COC[C@H]1CCCN1Cc1cc(C(F)(F)F)c2cn(-c3cccc(C4([C@@H](F)c5nncn5C)COC4)c3)c(=O)n2c1 (single isomer, unassigned) [Compound 11]	0.101 to 0.5 µM
CC(C)[C@H]1CN(C)CCN1Cc1cc(C(F)(F)F)c2cn(-c3cccc(C4([C@@H](F)c5nncn5C)CC(F)(F)C4)c3)c(=O)n2c1 (single isomer, unassigned) [Compound 12]	< 0.1 µM
CC(C)[C@H]1CN(C)CCN1Cc1cc(C(F)(F)F)c2cn(-c3cccc(C4(Cc5nncn5C(F)F)COC4)c3)c(=O)n2c1 [Compound 1]	< 0.1 µM
Cn1cnnc1[C@H](F)C1(c2cccc(-n3cc4c(C(F)(F)F)cc(CN)cn4c3=O)c2)COC1 [Compound 4]	0.101 to 0.5 µM
Cn1cnnc1[C@@H](F)[C@@](C)(F)c1cccc(-n2cc3c(C(F)(F)F)cc(CN4CCC5(CC5)C4)cn3c2=O)c1 [Compound 8]	0.101 to 0.5 µM
Cn1cnnc1[C@H](F)[C@@](C)(F)c1cccc(-n2cc3c(C(F)(F)F)cc(CN4CCC5(CC5)C4)cn3c2=O)c1 [Compound 9]	0.501 to 10 µM

Now from value to molecule:

IC50	SMILES
< 0.1 µM	CC(C)[C@H]1CN(C)CCN1Cc1cc(C(F)(F)F)c2cn(-c3cccc(C4([C@H](F)c5nncn5C)CC(F)(F)C4)c3)c(=O)n2c1 (single isomer, unassigned) [Compound 13]
0.101 to 0.5 µM	Cn1cnnc1[C@H](F)C1(c2cccc(-n3cc4c(C(F)(F)F)cc(CN5CC(C)(CO)C5)cn4c3=O)c2)COC1 (single isomer, unassigned) [Compound 14]
< 0.1 µM	Cn1cnnc1[C@@H](F)C1(c2cccc(-n3cc4c(C(F)(F)F)cc(CN5CC(C)(CO)C5)cn4c3=O)c2)COC1 (single isomer, unassigned) [Compound 15]
< 0.1 µM	Cn1cnnc1[C@H](F)C1(c2cccc(-n3cc4c(C(F)(F)F)cc(CN5CC6CC5C6)cn4c3=O)c2)COC1 (single isomer, unassigned) [Compound 16]
0.101 to 0.5 µM	Cn1cnnc1[C@@H](F)C1(c2cccc(-n3cc4c(C(F)(F)F)cc(CN5CC6CC5C6)cn4c3=O)c2)COC1 (single isomer, unassigned) [Compound 17]
< 0.1 µM	Cn1cnnc1[C@H](F)C1(c2cccc(-n3cc4c(C(F)(F)F)cc(CN5CCC5)cn4c3=O)c2)COC1 (single isomer, unassigned) [Compound 18]
0.101 to 0.5 µM	Cn1cnnc1[C@@H](F)C1(c2cccc(-n3cc4c(C(F)(F)F)cc(CN5CCC5)cn4c3=O)c2)COC1 (single isomer, unassigned) [Compound 19]
< 0.1 µM	CC(C)[C@H]1CN(C)CCN1Cc1cc(C(F)(F)F)c2cn(-c3cccc(C4([C@@H](F)c5nncn5C)COC4)c3)c(=O)n2c1 (single isomer, unassigned) [Compound 20]
< 0.1 µM	CC(C)[C@H]1CN(C)CCN1Cc1cc(C(F)(F)F)c2cn(-c3cccc(C4([C@H](F)c5nncn5C)COC4)c3)c(=O)n2c1 (single isomer, unassigned) [Compound 21]
